Reference: the Deep4Chem optical property database
Each block holds one compound with its values, some of them ahead of it.

Experiment: solvent given as SMILES

SMILES: COc1ccc(OC)c(C=O)c1
absorption maximum (in C1CCOC1): 349 nm | absorption maximum (in C1COCCO1): 348 nm | absorption maximum (in CC#N): 349 nm | absorption maximum (in CC(C)=O): 349 nm | absorption maximum (in CCCO): 352 nm | absorption maximum (in CCO): 352 nm | absorption maximum (in CN(C)C=O): 351 nm | absorption maximum (in CN(C)P(=O)(N(C)C)N(C)C): 352 nm | absorption maximum (in CNC=O): 352 nm | absorption maximum (in CO): 352 nm | absorption maximum (in CS(C)=O): 353 nm | absorption maximum (in ClC(Cl)Cl): 352 nm | absorption maximum (in NC=O): 356 nm

absorption maximum (in C1CCOC1): 370 nm
SMILES: c1cc2ccc1-c1ccc(cc1)-c1ccc([se]1)-c1ccc(cc1)-c1ccc(cc1)-c1ccc([se]1)-c1ccc(cc1)-c1ccc(cc1)-c1ccc([se]1)-c1ccc(cc1)-c1ccc(cc1)-c1ccc-2[se]1

absorption maximum (in ClCCl): 499 nm
SMILES: CCCN1c2ccccc2Sc2cc(C3=C4C=CC=[N+]4[B-](F)(F)n4cccc43)ccc21

absorption maximum (in ClCCl): 284 nm
SMILES: c1ccc(N(c2ccccc2)c2ccc(-c3ccc(-c4cc(-c5ccccn5)nc(-c5ccccn5)c4)cc3)cc2)cc1

SMILES: CS(=O)(=O)c1ccc(-c2cc3ccc(N)cc3c(=O)o2)cc1
absorption maximum (in CC(C)=O): 358 nm | absorption maximum (in CCCCCCCCO): 366 nm | absorption maximum (in CCCCO): 366 nm | absorption maximum (in CCCO): 366 nm | absorption maximum (in CCOC(C)=O): 356 nm | absorption maximum (in CN(C)C=O): 367 nm | absorption maximum (in CO): 358 nm | absorption maximum (in ClC(Cl)Cl): 351 nm

absorption maximum (in ClC(Cl)Cl): 412 nm
SMILES: C[Si](C)(C)C#CC(C#C[Si](C)(C)C)=Cc1ccc(C=C(C#C[Si](C)(C)C)C#C[Si](C)(C)C)cc1

SMILES: O=Cc1cc(O)ccc1O
absorption maximum (in C1CCOC1): 366 nm | absorption maximum (in C1COCCO1): 363 nm | absorption maximum (in CC#N): 362 nm | absorption maximum (in CC(C)=O): 364 nm | absorption maximum (in CCCO): 367 nm | absorption maximum (in CCO): 367 nm | absorption maximum (in CN(C)C=O): 365 nm | absorption maximum (in CN(C)P(=O)(N(C)C)N(C)C): 369 nm | absorption maximum (in CNC=O): 358 nm | absorption maximum (in CO): 364 nm | absorption maximum (in CS(C)=O): 366 nm | absorption maximum (in ClC(Cl)Cl): 362 nm | absorption maximum (in NC=O): 363 nm

absorption maximum (in C1CCCCC1): 595 nm | absorption maximum (in CCOC(C)=O): 599 nm
SMILES: CC1=[N+]2C(=C(c3ccccc3C)c3ccc(C)n3[B-]2(F)F)C=C1c1cc2n(c1)[B-](F)(F)[N+]1=CC=CC1=C2c1c(C)cc(C)cc1C

absorption maximum (in C1CCOC1): 342 nm
SMILES: O=P1(c2ccccc2)C(c2ccc(C(F)(F)F)cc2)=Cc2ccccc21 (stereo not drawn)

absorption maximum (in C1CCOC1): 382 nm
SMILES: CCC1(CC)c2ccccc2-c2c1c1c(c3c2C(CC)(CC)c2cc(/C=C/c4cccs4)ccc2-3)C(CC)(CC)c2cc(/C=C/c3cccs3)ccc2-1

absorption maximum (in ClCCl): 470 nm
SMILES: O=C(c1ccc2c3c(cccc13)-c1cccc3c1C2CC=C3)c1c(CCc2ccccc2)c2ccc3cccc4c5cccc6ccc1c(c65)c2c34 (stereo not drawn)

SMILES: F[B-]1(F)n2cccc2C(c2c3ccccc3cc3ccccc23)=C2C=CC=[N+]21
absorption maximum (in CC#N): 502 nm | absorption maximum (in CCCCCC): 505 nm | absorption maximum (in CCO): 503 nm | absorption maximum (in CN(C)C=O): 506 nm | absorption maximum (in Cc1ccccc1): 508 nm | absorption maximum (in ClCCl): 506 nm

SMILES: CC1(C)c2ccccc2N(c2ccc(-c3ccc4c(c3)c3cc(-c5ccc(N6c7ccccc7C(C)(C)c7ccccc76)cc5)ccc3c3nc(C#N)c(C#N)nc43)cc2)c2ccccc21
absorption maximum (in Cc1ccccc1): 405 nm

SMILES: O=P1(c2ccccc2)C2=C(c3ccccc31)C(c1ccccc1)(c1ccccc1)c1cc(N(c3ccccc3)c3ccccc3)ccc12 (stereo not drawn)
absorption maximum (in CC#N): 427 nm | absorption maximum (in CO): 438 nm | absorption maximum (in Cc1ccccc1): 431 nm

absorption maximum (in CC#N): 462 nm | absorption maximum (in CO): 461 nm
SMILES: O=c1c2ccccc2c2c3c(cccc13)c(-c1ccccc1)c1c3cccc4cccc(c43)c12

SMILES: CCCCCCc1ccc(-n2c3[n+](c4c5ccccc5c5ccccc5c42)[B-](C)(C)c2cc(N(c4ccccc4)c4ccccc4)ccc2-3)cc1
absorption maximum (in C1CCOC1): 393 nm | absorption maximum (in CC#N): 390 nm | absorption maximum (in Cc1ccccc1): 397 nm | absorption maximum (in ClCCl): 392 nm

SMILES: CCCCCCOc1ccc(N(c2ccc(OCCCCCC)cc2)c2ccc(-c3sc(-c4ccc(N(c5ccc(OCCCCCC)cc5)c5ccc(OCCCCCC)cc5)cc4)c4nc(-c5ccccc5)c(-c5ccccc5)nc34)cc2)cc1
absorption maximum (in C1CCOC1): 601 nm | absorption maximum (in CC(C)=O): 592 nm | absorption maximum (in CCOC(C)=O): 594 nm | absorption maximum (in CCOCC): 600 nm | absorption maximum (in CN(C)C=O): 598 nm | absorption maximum (in Cc1ccccc1): 600 nm | absorption maximum (in ClC(Cl)Cl): 601 nm | absorption maximum (in ClCCl): 600 nm

absorption maximum (in ClCCl): 374 nm
SMILES: CCOC(=O)/N=c1/oc2c(OC)cccc2cc1C#N

absorption maximum (in C1CCOC1): 400 nm
SMILES: CCCCCCC1(CCCCCC)c2cc(-c3nc(-c4ccc5c(c4)C(CCCCCC)(CCCCCC)c4cc(N6c7ccccc7Sc7ccccc76)ccc4-5)nc(-c4ccc5c(c4)C(CCCCCC)(CCCCCC)c4cc(N6c7ccccc7Sc7ccccc76)ccc4-5)n3)ccc2-c2ccc(N3c4ccccc4Sc4ccccc43)cc21

SMILES: COc1cccc(OC)c1C1=C2C(C)=CC(C)=[N+]2[B-](F)(F)n2c(C)cc(C)c21
absorption maximum (in C1CCOC1): 506 nm | absorption maximum (in CC#N): 500 nm | absorption maximum (in CC(=O)C(C)(C)C): 505 nm | absorption maximum (in CC(C)=O): 503 nm | absorption maximum (in CCCCCC): 507 nm | absorption maximum (in CCOC(C)=O): 504 nm | absorption maximum (in CO): 503 nm

absorption maximum (in O): 287 nm
SMILES: COc1cc(/C=C/C(=O)O)ccc1O

SMILES: c1ccc(-c2nc(-c3ccccc3)nc(-c3ccc(-n4c5ccccc5c5cc6c(cc54)C4c5ccccc5C6c5ccccc54)cc3)n2)cc1
absorption maximum (in Cc1ccccc1): 373 nm

SMILES: CCOC(=O)CN1C(=O)C2=C(c3ccc(N4CCCCC4)cc3)N(CC(=O)OCC)C(=O)C2=C1c1ccc(C#N)cc1
absorption maximum (in CC#N): 524 nm | absorption maximum (in CS(C)=O): 541 nm | absorption maximum (in Cc1ccccc1): 527 nm

absorption maximum (in C1CCCCC1): 376 nm | absorption maximum (in CC#N): 380 nm | absorption maximum (in CO): 378 nm | absorption maximum (in ClC(Cl)Cl): 383 nm
SMILES: CN(C)c1ccc(/C=C/c2ccc(-c3nc(C#N)c(C#N)n3C)cc2)cc1

absorption maximum (in ClCCl): 317 nm
SMILES: C(=C\c1cc(/C=C/c2ccccc2)cc(/C=C/c2ccccc2)c1)/c1ccccc1

absorption maximum (in ClCCl): 408 nm
SMILES: CCN(CC)c1ccc2c(c1)oc(=O)c1c(C)nc3c(c(-c4ccccc4)nn3C)c12

absorption maximum (in ClCCl): 325 nm
SMILES: C(#Cc1cccs1)c1ncc(-c2ccccc2)o1

absorption maximum (in CCO): 382 nm | absorption maximum (in ClCCl): 385 nm
SMILES: N#Cc1cnc(-c2c3ccccc3cc3ccccc23)nc1

absorption maximum (in CCO): 348 nm
SMILES: CC(C)(C)Nc1cc(F)c(C(=O)c2cc(F)c(NC(C)(C)C)cc2F)cc1F

absorption maximum (in ClCCl): 526 nm | absorption maximum (in OCC(F)(F)F): 512 nm
SMILES: C=CCOc1nnc(OCCC(F)(F)C(F)(F)C(F)(F)C(F)(F)C(F)(F)C(F)(F)C(F)(F)C(F)(F)F)nn1

absorption maximum (in CC#N): 363 nm
SMILES: Fc1ccc(/C=C/c2nc3c4ccccc4c4ccccc4c3o2)cc1

absorption maximum (in ClCCl): 302 nm
SMILES: Cc1c(C)c2c3ccccc3[nH]c2c2ccccc12

SMILES: CCC1=C(C)C2=Cc3c4ccccc4c4n3[B-](c3ccc5cc6ccccc6cc5c3)(Oc3ccccc3-4)[N+]2=C1C (stereo not drawn)
absorption maximum (in CC#N): 621 nm | absorption maximum (in CCCCCC): 626 nm | absorption maximum (in Cc1ccccc1): 630 nm | absorption maximum (in ClCCl): 627 nm

absorption maximum (in ClCCl): 351 nm
SMILES: C(S/C=C/c1ccc(-c2ccc(/C=C/SC=C3CCCCC3)cc2)cc1)=C1CCCCC1

absorption maximum (in CC#N): 317 nm
SMILES: N#Cc1nn(-c2c(Cl)cccc2Cl)nc1N1CCCC1

absorption maximum (in ClCCl): 570 nm
SMILES: CCCCCCOc1cc(N(CC)CC)ccc1/C=C(\C#N)c1ccc(/C=C/C(=C(C#N)C#N)c2ccc3c(c2)c2ccccc2n3CC)s1

absorption maximum (in ClC(Cl)Cl): 362 nm
SMILES: CN(C)c1ccc(-c2ccc(-c3cc(-c4ccccc4)c(-c4ccccc4)c(-c4ccccc4)c3-c3ccccc3)s2)cc1
